Test results: PMC8839081 (Molecules, 2022)
Values joined by “and” are separate entries in the source; they are usually repeats but may differ in a detail not shown here. Equal entries are not always repeated. Where two headings read alike, the source gives them in different places.

Experiments:
[1] = system: bloodstream Trypanosoma brucei brucei; conditions: read-out: EC50 (µM) against bloodstream T. b. brucei, same cell line and assay conditions, ref Benítez et al. 2020, cited from earlier work
[2] = system: C6 glioma cells; assay: GDNF release by C6 cells (sandwich ELISA of culture medium); type: cell-based, Rat; conditions: 48 h; for GDNF in the medium relative to negative control (GDNF/DMSO): initial screening, confluent C6 cells, 10 μM; for EC50: Rattus norvegicus, C6 glioma, read-out: EC50 of GDNF release; for maximum GDNF release relative to vehicle: dose-response assay, maximum at 10 µM
Description: (§1) Cell culture: Rat C6 glioma cells were purchased from the American Type Culture Collection (CC-107) and maintained in Dulbecco’s Modified Eagle Medium (Life Technologies, Carlsbad, CA, USA; 10569) with 5% (v/v) fetal bovine serum (FBS, Atlanta Biologicals) and 100 U mL−1 of penicillin and streptomycin (Life Technologies). Cells were incubated at 37 °C with 5% CO2 humidified atmosphere. As a glioma cell line, C6 cells are highly susceptible to phenotypic drift, which can lead to varying expression levels of receptors and growth factors of interest. For such reason, all data presented here show a single representative experiment of many independent replicate trials.
GDNF release experiments: Into a 96-well plate were added C6 cells at a density of 25,300 cells/well in full growth medium (see above). Cells were allowed to adhere for 24 h at 37 °C. Cells were then serum-starved with media containing 0.5% FBS (low serum) for an additional 24 h. Low-serum media was refreshed prior to starting the experiment. Compounds were added in 50 μL of low-serum media to obtain a final volume of 200 μL/well. Treatments were performed in quadruplicate. […] Experiments were terminated by removing the conditioned media from each well and storing them at −80 °C until analyzed. GDNF was detected using a standard sandwich-style ELISA kit purchased from Promega Corporation (Madison, WI, USA) following the manufacturer’s instructions. Briefly, monoclonal anti-GDNF antibodies were captured onto a 96-well Nunc Immulon Immunoassay plate at a dilution of 1:1000 in carbonate coating buffer (25 mM sodium bicarbonate, 25 mM sodium carbonate, pH 8.2) overnight at 4 °C. After removing the monoclonal antibody, wells were blocked with 1× block and sample buffer for 1 h at RT (200 μL/well). A GDNF standard curve was created by serially diluting the recombinant human GDNF standard in 1× block and sample buffer to a concentration range of 0−1000 pg mL^−1. To each sample well was added 100 μL of conditioned media from above and the standard curve (in duplicate), and plates were incubated for 6 h with shaking at RT. After washing five times with TBST (150 mM sodium chloride, 10 mM Tris·HCl, 10 mM Tris base, 0.05% Tween 20, pH 7.6), wells were incubated with antihuman polyclonal GDNF antibodies (1:500) in 1× block and sample buffer overnight at 4 °C. Following an additional five washes with TBST, wells were incubated with antichicken IgY-HRP conjugate antibody (1:250) for 2 h with light shaking. After a final five washes, TMB One (100 μL/well) was added to each well and allowed to develop in the absence of light until there were clear differences in color between the highest and lowest concentrations of the standard curve. Wells were then quenched with 1 M HCl (100 μL/well), and the plates were read at an absorbance wavelength of 450 nm using a BioTek Synergy H1 plate reader.

[3] = system: bloodstream Trypanosoma brucei brucei; assay: Bioluminescent viability assay on bloodstream T. b. brucei (LUC cell line); type: cell-based; conditions: 24 h; for viability at 10 µM: read-out: Viability at 10 µM (%), bloodstream T. b. brucei, 10 µM, 24 h
Description: The anti-trypanosomal activity of compounds was evaluated against the bioluminescent cell line of the bloodstream stage of Trypanosoma brucei brucei (called LUC cell line) as previously described. Briefly, to a 96-well culture plate containing 2.2 μL/well DMSO (negative control) or compounds dissolved in DMSO (1% final concentration), 220 μL/well of a suspension of 1 × 10^5 parasites/mL was added. The plates were incubated at 37 °C and 5% CO2 for 24 h. Next, each well was transferred to a 96-well black plate and 20 μL of a solution containing D-Luciferin (1.5 mg/mL in PBS glucose 1% w/v) and Triton X-100 (0.05% vol/vol) was added. Bioluminescence signal was measured in a LUMIstar OPTIMA Microplate luminometer using the following settings: 10 s shaking, 5 s/well acquisition, 0.2 s measurement delay, maximum gain, and 37 °C. For the bioluminescence assay, parasite viability was calculated according to the following formula: Viability (%) = (BLcpd—BLblank)/ (Blneg—BLblank) × 100, where BL refers to the mean of bioluminescence signal corresponding to the tested compound (cpd), the blank (blank, complete media containing 1% v/v DMSO), or the negative control (neg, parasites treated with 1% v/v DMSO). EC50 values were determined from concentration-response curves fitted to a four-parameter sigmoid equation using the GraphPad Prism software (version 6.0). All errors are expressed as one SD.

[4] = system: C6 glioma cells; assay: WST-1 cell viability assay on C6 cells; type: cell-based, Rat; conditions: for IC50: Rattus norvegicus, 48 h exposure, read-out: IC50 of cell proliferation / cell viability (WST-1)
Description: as §1
WST-1 Cell Viability Assay: After compound treatment, conditioned media were removed and replaced with 75 μL of warm low-serum media. To each well was added 5 μL of WST-1 Cell Proliferation Reagent (Roche Applied Science, Penzberg, Germany), and the cells were incubated at 37 °C for no more than 1 h. Plates were briefly shaken prior to reading the absorbance at 450 nm. Treatments were compared to vehicle control.

[5] = system: C6 glioma cells; assay: LDH cytotoxicity (cell lysis) assay on C6 cells; type: cell-based; conditions: 48 h, dose-response 0.03 to 60 µM
Description: as §1
LDH Cytotoxicity Assay: The lactate dehydrogenase cytotoxicity assay (Promega) was performed following the manufacturer’s instructions. Briefly, following compound treatment, conditioned media were removed, and untreated wells were washed twice with phosphate buffered saline. To untreated wells was added 40 μL of low-serum media supplemented with lysis buffer provided in the kit (1:10), protease inhibitor cocktail (1:100), and phosphatase inhibitor cocktail 2 (1:100). Cells were lysed at 37 °C for 1 h. […] The wells were quenched with 50 μL of stop solution, and the plates were read at an absorbance wavelength of 490 nm.

[6] = Trypanosoma brucei, read-out: EC50 (µM) against bloodstream T. b. brucei, 24 h, mean SD (n = 3)
[7] = read-out: EC50 (µM) against bloodstream T. b. brucei, mean SD (n = 3)
[8] = mean SD (n = 3), read-out: EC50 (µM) against bloodstream T. b. brucei
[9] = Trypanosoma brucei, mean SD (n = 3), read-out: EC50 (µM) against bloodstream T. b. brucei

| SMILES | GDNF in the medium relative to negative control (GDNF/DMSO) [2] | EC50 [3, 7] | viability at 10 µM ([3]; Trypanosoma brucei) [%] | EC50 [3, 8] [µM] | EC50 [3, 9] [µM] | maximum GDNF release relative to vehicle [2] [times] | also measured |
| --- | --- | --- | --- | --- | --- | --- | --- |
| CC1CS(=O)(=O)CCN1/N=C/c1ccc([N+](=O)[O-])o1 (stereo not drawn) [Nifurtimox] |  |  |  |  |  |  | EC50 [1]: 5.3 µM; EC50 ([1]; listed as Nfx): 5.31 ± 0.44 µM |
| CCC1CC2C=CC1N(CCc1c[nH]c3ccc(F)cc13)C2 (stereo not drawn) [XL-008, reference compound] | ~ 57 times | 19.5 ± 0.3 µM |  |  |  |  | EC50 [3, 6]: 20 µM |
| CC1(C)OC2C3C=CC(C)(C2O1)N(CCc1c[nH]c2ccccc12)C3CO [Compound 13, (1S, 3R, 4S, 5S, 6R)-N-(2-(3-indolyl)ethyl)-1-methyl-3-hydroxymethyl-5,6-isopropylidendioxy-2-azabicycle[2.2.2]-7-octene] |  |  | 88 |  |  |  |  |
| COC(=O)C1C2C=CC(C)(C3OC(C)(C)OC23)N1CCc1c[nH]c2ccccc12 [Compound 7, (1S, 3S, 4S, 5S, 6R)-Methyl N-(2-(3-indolyl)ethyl)-1-methyl-5,6-isopropylidendioxy-2-azabicycle[2.2.2]-7-octenen-3-carboxylate] |  |  |  | 31.5 ± 1.18 | 31.5 |  | Viability at 10 µM (%) ([3]; bloodstream T. b. brucei, 10 µM): 42 ± 14% |
| CC(C)C(C)(C)[Si](C)(C)OCC1NC2(C)C=CC1C1OC(C)(C)OC12 [Compound 10exo, (1S, 3R, 4S, 5R, 6S)-1-Methyl-3-(dimethyl(1,1,2-trimethylpropyl)silyloxy)methyl-5,6-isopropylidendioxy-2-azabicycle[2.2.2]-7-octene] |  |  | 64 ± 2 |  |  |  |  |
| CC1(C)OC2C3C=CC(C)(C2O1)N(CCc1c[nH]c2ccccc12)C3COC(=O)Cc1c[nH]c2ccccc12 [Compound 15, (1S, 3R, 4S, 5S, 6R)-N-(2-(3-indolyl)ethyl)-1-methyl-3-(2-(1H-3-indolyl)acetyloxy)methyl-5,6-isopropylidendioxy-2-azabicycle[2.2.2]-7-octene] | up to 60 times |  | 0 | 3.47 ± 0.02 | 3.5 | 70 | EC50 ([2]; dose-response 0.03 to 60 µM): 6.79 µM; IC50 [4]: 3.5 µM |
| CC1(C)OC2C3C=CC(C)(C2O1)N(CCc1c[nH]c2ccccc12)C3COCc1ccccc1 [Compound 14, (1S, 3R, 4S, 5S, 6R)-N-(2-(3-indolyl)ethyl)-1-methyl-3-benzyloximethyl-5,6-isopropylidendioxy-2-azabicycle[2.2.2]-7-octene] | ≤ 7 times | 1.27 ± 0.26 µM | 22 ± 12 |  |  | 23 | EC50 [2]: 20.1 µM; lowest concentration with impairment in cell viability (WST-1) ([4]; 48 h, dose-response): ≥ 300 nM; EC50 [3, 6]: 1.3 µM |
| CC(C)C(C)(C)[Si](C)(C)OCC1C2C=CC(C)(C3OC(C)(C)OC23)N1CCc1c[nH]c2ccccc12 [Compound 11, (1S, 3R, 4S, 5S, 6R)-N-(2-(3-indolyl)ethyl)-1-methyl-3-(dimethyl(1,1,2-trimethylpropyl)silyloxy)methyl-5,6-isopropylidendioxy-2-azabicycle[2.2.2]-7-octene] | ≤ 15 times |  | 37 ± 6 | 7.95 ± 0.34 | 7.9 | 9 | EC50 ([2]; dose-response 0.03 to 60 µM): 3.46 µM; IC50 [4]: 17.7 µM |
| COC(=O)C1C2C=CC(C)(C3OC(C)(C)OC23)N1CCc1c[nH]c2ccccc12 [Compound 6, (1S, 3R, 4S, 5R, 6S)-Methyl N-(2-(3-indolyl)ethyl)-1-methyl-5,6-isopropylidendioxy-2-azabicycle[2.2.2]-7-octenen-3-carboxylate] | up to 6 times | 7.9 µM and 7.96 µM | 24 ± 6 |  |  |  | concentrations at which cell viability is impaired (WST-1) ([4]; 48 h, dose-response 0.03 to 60 µM): ≥ 10 µM; concentrations with significant cell lysis / cell death (LDH) [5]: 60 µM |
